Laboratory results: publication PMC8907207, “Multiplex quantification of C-terminal alpha-1-antitrypsin peptides provides a novel approach for characterizing systemic inflammation” (Scientific Reports, 2022)
Ends that are not written are not given here.

Tests used:
[1] = Freeze/thaw stability of QC samples; type: in vitro ADME; settings: QC in 70 g/L albumin in PBS, two cycles of freezing and thawing, LC-MS/MS
Description: (§1) Stability of analytes in processed samples was determined at six independent days for a time span of 20 h in the autosampler. Deviations of standing samples to freshly measured samples were below 19% at the LLOQ and below 9% for other QC levels for each analyte, respectively (Additional file 4). Stability of analytes in biological matrix was determined by consecutive cycles of freezing and thawing as well as extended intervals at room temperature from thawing to processing (approximately one hour).
(§2) Lyophilized authentic peptide standards were dissolved and diluted in a 70 g/L Albumin (from human serum, lyophilized, ≥ 99%, Sigma-Aldrich) in PBS (Sigma-Aldrich, St. Louis, MO, USA) solution. Internal standards C37^IS and C42^IS were dissolved in Milli-Q water (Millipore, Brussels, Belgium) containing 0.1% (v/v) formic acid (≥ 95%, Sigma-Aldrich) whereas C22^IS was only dissolved in ultrapure water. Mixtures of CAAPs used as calibration standards (calibrants) and quality control samples (QCs) were prepared as stock solution to a final concentration of 14 µM, respectively, (expect C40^SNP which was 5 µM) with subsequent serial dilutions. Calibrants and QCs were obtained from separate serial dilutions. Internal standard solution was prepared by adding equal volumes of each IS yielding a final concentration of 0.8 µM, respectively. All samples used for method development and validation were prepared and stored in 0.5 mL Protein LoBind Tubes (Eppendorf AG, Hamburg, Germany) in aliquots at − 80 °C until use.
(§3) Working range of calibrants was defined based on CAAPs detected in samples from healthy donors (set to approximate lower limit of quantification) and in samples from septic patients (set to middle to high calibration range) which were re-analyzed from a previously work[46]. Nine calibrants were used in total ranging from 0.01 µM to 1.5 µM thereby covering more than two orders of magnitude in concentration. Linearity was assessed determining mean linear regression coefficients of each calibration curve from 0.01 to 1.5 µM in eight independent analytical runs. However, respective LLOQs (lower limit of quantification) and ULOQs (upper limit of quantification) were defined individually based on natural occurrence (see above) and results from validation parameter directly affected individual working ranges (carry-over, specificity). Four QC samples were prepared and measured in total (QC1, QC2, QC3, and QC4) to cover the entire range of calibration. However, three QCs for each of the respective analytes were used for method validation. Carry-over was determined measuring pure albumin solutions prepared without internal standards (but equal amount and concentration of water/formic acid solution as regular internal standard solution, “blank albumin sample”) directly after the respective highest calibrants. Peak areas were compared to peak areas from respective LLOQ samples (prepared with regular internal standard solution). Specificity was assessed using single compounds at respective highest calibrant level which were prepared and calculated as described for carry-over. The specificity of analytes towards internal standards was determined using pure albumin solution with internal standard (“zero albumin sample”). Accuracy and precision was determined by back-calculated concentrations from repeated measurements of the same QC samples during one analytical run (within-run repeatability, n = 5) and from freshly prepared samples during five independent analytical runs (between-run, n = 5). Due to the unavailability of analyte-free biological matrix, selectivity of analytes were assessed in pure albumin solution containing internal standards. Matrix effects were determined calculating recovery rates and precision of each compound in human blood samples. Direct comparison between different anticoagulants (EDTA, lithium-heparin) and serum was performed using whole blood from the same human donor. […]

[2] = Benchtop stability of QC samples at room temperature; type: in vitro ADME; settings: QC in 70 g/L albumin in PBS, 60 min. at room temperature, LC-MS/MS
Description: as §1, §2, §3

[3] = QC2 (0.025 µM; C40^SNP see Table 1)
[4] = QC3 (0.3 µM; C40^SNP 0.1073 µM)

| Sequence | freeze/ thaw stability, accuracy (mean of n=3) [1, 3] | freeze/ thaw stability, deviation from freshly processed QCs (mean of n=3) [1, 3] | freeze/ thaw stability, accuracy (mean of n=3) [1, 4] | freeze/ thaw stability, deviation from freshly processed QCs (mean of n=3) [1, 4] | benchtop stability, accuracy (mean of n=3) [2, 3] | benchtop stability, deviation from freshly processed QCs (mean of n=3) [2, 3] | benchtop stability, accuracy (mean of n=3) [2, 4] | benchtop stability, deviation from freshly processed QCs (mean of n=3) [2, 4] |
| --- | --- | --- | --- | --- | --- | --- | --- | --- |
| AIPMSIPPEVKFNKPFVFLMIDQNTKSPLFMGKVVNPTQK [C40^SNP] | 103% | -3% | 100% | -3% | 104% | -1% | 101% | -2% |
| AIPMSIPPEVKFNKPFVFLMIEQNTKSPLFMGKVVNPTQK [C40^WT] | 107% | 5% | 99% | -4% | 109% | 6% | 101% | -3% |
| FLEAIPMSIPPEVKFNKPFVFLMIDQNTKSPLFMGKVVNPTQK [C43^SNP] | 105% | -4% | 107% | -3% | 109% | 1% | 107% | -3% |
| IPMSIPPEVKFNKPFVFLMIDQNTKSPLFMGKVVNPTQK [C39^SNP] | 105% | -1% | 102% | -2% | 102% | -4% | 100% | -4% |
| IPMSIPPEVKFNKPFVFLMIEQNTKSPLFMGKVVNPTQK [C39^WT] | 107% | 8% | 101% | 2% | 106% | 8% | 98% | -1% |
| LEAIPMSIPPEVKFNKPFVFLMIDQNTKSPLFMGKVVNPTQK [C42^SNP] | 105% | 2% | 100% | -4% | 104% | 1% | 101% | -3% |
| LEAIPMSIPPEVKFNKPFVFLMIEQNTKSPLFMGKVVNPTQK [C42^WT] | 104% | 2% | 100% | -4% | 102% | 1% | 101% | -3% |
| LMIDQNTKSPLFMGKVVNPTQK [C22^SNP] | 103% | 2% | 97% | 0% | 104% | 2% | 100% | 3% |
| LMIEQNTKSPLFMGKVVNPTQK [C22^WT] | 104% | 2% | 99% | -2% | 103% | 1% | 102% | 1% |
| MSIPPEVKFNKPFVFLMIDQNTKSPLFMGKVVNPTQK [C37^SNP] | 104% | 0% | 98% | -1% | 103% | 0% | 99% | -1% |
| MSIPPEVKFNKPFVFLMIEQNTKSPLFMGKVVNPTQK [C37^WT] | 114% | 9% | 103% | 1% | 106% | 1% | 101% | -1% |

The next lines start with the values.

| freeze/ thaw stability, accuracy (mean of n=3) [1, 3] | freeze/ thaw stability, deviation from freshly processed QCs (mean of n=3) [1, 3] | freeze/ thaw stability, accuracy (mean of n=3) [1, 4] | freeze/ thaw stability, deviation from freshly processed QCs (mean of n=3) [1, 4] | benchtop stability, accuracy (mean of n=3) [2, 3] | benchtop stability, deviation from freshly processed QCs (mean of n=3) [2, 3] | benchtop stability, accuracy (mean of n=3) [2, 4] | benchtop stability, deviation from freshly processed QCs (mean of n=3) [2, 4] | Sequence |
| --- | --- | --- | --- | --- | --- | --- | --- | --- |
| 109% | -3% | 112% | -2% | 114% | 1% | 112% | -2% | AMFLEAIPMSIPPEVKFNKPFVFLMIDQNTKSPLFMGKVVNPTQK [C45^SNP] |
| 108% | -6% | 117% | -2% | 116% | 1% | 117% | -3% | AMFLEAIPMSIPPEVKFNKPFVFLMIEQNTKSPLFMGKVVNPTQK [C45^WT] |
| 103% | -2% | 108% | -2% | 110% | 4% | 109% | -1% | FLEAIPMSIPPEVKFNKPFVFLMIEQNTKSPLFMGKVVNPTQK [C43^WT] |
| 109% | -6% | 115% | -2% | 114% | -2% | 115% | -2% | MFLEAIPMSIPPEVKFNKPFVFLMIDQNTKSPLFMGKVVNPTQK [C44^SNP] |
| 110% | -4% | 115% | -1% | 117% | 1% | 114% | -2% | MFLEAIPMSIPPEVKFNKPFVFLMIEQNTKSPLFMGKVVNPTQK [C44^WT] |
